For two compounds, IC50 results are on record in publication PMC12442245, “Activity Analysis of the P2X Receptor Antagonist PPADS against Signal Transducer and Activator of Transcription Proteins” (Chembiochem, 2025).

As a reminder, the IC50 is the point on the concentration scale where inhibition reaches its midpoint. Low readings indicate higher potency, high ones lower potency.

This assay deals with T1, STAT5a (Homo sapiens, UniProt P42229).
T1 sequence (P42229 1-794): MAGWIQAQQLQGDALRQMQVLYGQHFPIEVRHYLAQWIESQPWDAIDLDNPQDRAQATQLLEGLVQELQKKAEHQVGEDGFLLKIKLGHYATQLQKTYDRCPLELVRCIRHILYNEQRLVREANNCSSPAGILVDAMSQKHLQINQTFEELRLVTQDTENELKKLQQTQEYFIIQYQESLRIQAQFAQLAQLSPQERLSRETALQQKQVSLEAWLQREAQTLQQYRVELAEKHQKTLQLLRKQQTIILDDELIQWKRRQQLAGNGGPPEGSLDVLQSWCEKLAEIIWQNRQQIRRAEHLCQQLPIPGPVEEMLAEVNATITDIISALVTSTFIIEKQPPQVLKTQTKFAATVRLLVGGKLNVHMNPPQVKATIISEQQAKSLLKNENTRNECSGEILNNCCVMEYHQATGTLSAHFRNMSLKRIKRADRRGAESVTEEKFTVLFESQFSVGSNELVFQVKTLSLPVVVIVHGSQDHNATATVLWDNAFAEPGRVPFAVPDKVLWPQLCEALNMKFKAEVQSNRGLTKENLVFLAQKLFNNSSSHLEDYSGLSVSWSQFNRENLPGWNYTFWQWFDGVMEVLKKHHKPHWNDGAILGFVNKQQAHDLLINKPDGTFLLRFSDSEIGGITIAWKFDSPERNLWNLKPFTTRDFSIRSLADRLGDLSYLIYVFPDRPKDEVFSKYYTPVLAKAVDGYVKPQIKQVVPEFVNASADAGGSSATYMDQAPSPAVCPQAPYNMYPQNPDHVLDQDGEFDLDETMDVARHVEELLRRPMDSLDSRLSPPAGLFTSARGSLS
The assay can be described thus: HTRF assay, STAT5a. Particulars: STAT5a 110 nM, without reducing agent, 1 h. Type of assay: binding. The source says: The azo dyes PPADS and iso‐PPADS have a deep red color in aqueous solution. […] In order to exclude this possibility, we established homogeneous time‐resolved fluorescence resonance energy transfer (HTRF) assays to confirm the degree of binding between STAT4, STAT5a, and STAT5b and the respective 5‐carboxyfluorescein‐labeled binding peptides used in the FP assay. In addition, an HTRF assay was established for STAT3, one of the STAT proteins targeted to a lesser extent in FP assays, as a specificity control (Figure 1B,C). The STAT protein constructs each contain a 6x‐His‐tag.^[ [15], [16], [17], [22] ^] A Tb^3+‐cryptate fused to an anti‐6x‐His antibody was chosen as the long‐lived fluorescent donor, while the carboxyfluorescein linked to the respective STAT‐binding peptides served as the acceptor (Figure 2A). Emission was measured with a time delay of 60 μs after excitation, allowing any initial compound fluorescence to decay beforehand. […]
Screening of chemical libraries comprising approximately 5000 known bioactive compounds in fluorescence polarization-based assays against phosphorylation-dependent protein-protein interaction domains, including STAT proteins, has been described.[1] […]
Fluorescence polarization assays
Competitive fluorescence polarization (FP) assays for STAT1,[2] […] Briefly, peptide binding to proteins was analyzed using the following carboxyfluorescein (CF) -labelled pepti des at a concentration of 10 nM: STAT1: 5-CF-GpYDKPHVL-OH, STAT3: 5-CF-GpYLPQTV -NH2, STAT4: 5-CF-GpYLPQNID-OH, STAT5a and STAT5b: 5-CF-GpYLVLDKW-OH, STAT6: 5- […]
CFGp[…]-OH. […] FP was measured using an Infinite F500 plate reader (Tecan) and measurements were converted into percent inhibition according to the binding curve equation. Curves were plotted and best fits calculated using OriginPro […]
Homogenous time-resolved fluorescence (HTRF) assays for STAT3, STAT4, STAT5a and STAT5b were carried out using Cisbio Monoclonal Antibody Anti-6His-Tb Gold as the fluorescence donor (Perkin Elmer) and the corresponding CF-labelled binding peptide as the acceptor. […] The average reading from 3 wells was obtained. […]
(In general: In TR-FRET formats the signal depends on donor and acceptor labels being close together.)

On to `Cc1nc(/N=N/c2ccc(S(=O)(=O)O)cc2S(=O)(=O)O)c(COP(=O)(O)O)c(C=O)c1O` [PPADS, pyridoxalphosphate‐6‐azophenyl‐2',4'‐disulfonic acid], for which inhibition was half-maximal at 1.41 ± 0.35 µM (IC50).
On to `Cc1nc(/N=N/c2cc(S(=O)(=O)O)ccc2S(=O)(=O)O)c(COP(=O)(O)O)c(C=O)c1O` [iso‐PPADS], for which it took 8.2 ± 0.7 µM to reach half-maximal inhibition (IC50).
